Source: publication PMC8692993, “PPARα and PPARγ activation is associated with pleural mesothelioma invasion but therapeutic inhibition is ineffective” (iScience, 2021)

Assays:
[1] = Mouse pharmacokinetic study, plasma exposure after IP dosing; type: in vivo, BALB/c mice; conditions: IP 10 mg/kg; for Cmax / Plasma AUC0–24 h: female BALB/c mice
Protocol: Pharmacokinetic animal studies were conducted using established procedures in accordance with the Australian Code of Practice for the Care and Use of Animals for Scientific Purposes, and the study protocols were reviewed and approved by the Monash Institute of Pharmaceutical Sciences Animal Ethics Committee. The systemic exposure of GW6471 was studied in non-fasted female BALB/c mice (5 - 8 weeks) weighing 15.2–22.6 g. Mice had access to food and water ad libitum throughout the pre- and post-dose sampling period. GW6471 (10 mg/kg) was dosed to all mice via a single intraperitoneal (IP) injection (5 mL/kg). For the ABT pre-treated group, ABT was pre-dosed to animals at 50 mg/kg via IP injection (5 mL/kg) 2 h prior to administration of GW6471. Following IP administration of GW6471, blood samples were collected up to 24 h at indicated time points (n = 3 mice per time point) with a maximum of three samples from each mouse. Blood samples were collected via submandibular bleed (approximately 120 μL) into polypropylene Eppendorf tubes containing heparin as anticoagulant and stabilisation cocktail (containing the protease inhibitor cocktail Complete® and KF) to minimise the potential for ex vivo compound degradation in blood/plasma samples. Once collected, blood samples were centrifuged immediately, supernatant plasma was removed, and stored at−80°C until analysis by liquid chromatography-mass spectrometry (LC–MS). The plasma concentration versus time profile was defined by the average plasma concentration at each sample time, and PK parameters were calculated using non-compartmental methods (PKSolver Version 2.0).
Compound quantification was performed using a Xevo G2 QTOF (in vitro metabolic stability) using positive electrospray ionisation under MS^E mode or a Waters Xevo TQD (mouse exposure) mass spectrometer using positive electrospray ionisation multiple-reaction monitoring mode. Compounds were eluted using an acetonitrile-water/0.05% formic acid gradient at a flow rate of 0.4 mL/min operating over a 4 min cycle on a Waters Acquity UPLC using a Supelco Ascentis Express RP C8 column (50 × 2.1 mm, 2.7 μm). Extraction was performed by precipitation using acetonitrile (1:1 volume ratio for microsomes and 2:1 volume ratio for plasma samples) followed by centrifugation. Compound concentrations were quantified against calibration standards prepared in an appropriate matrix to match the test samples (e.g. plasma or microsomes).
ABT Formulation: On the evening prior to dosing, ABT was dissolved in a 0.9% (w/v) saline using vortexing and sonicating, resulting in a colourless solution. The nominal concentration of ABT in the formulation was 10 mg/mL. GW6471 Formulation: The final drug contains 40% final volume of PEG400 (Kollisolv PEG E 400, Sigma Aldrich), and 60% final volume of Solutol HS-15 (Kolliphor HS-15, Sigma Aldrich). Solutol is previously mixed in a saline solution (12.5% concentration). On the day of dosing, the solid GW6471 was first dissolved in PEG400by thoroughly vortexing and sonicating for 5 min. Then, the saline solution containing Solutol HS-15 12.5% was added. Again, the formulation was then thoroughly vortexed and sonicated to produce a hazy pale yellow suspension with an apparent pH of 3.4. The nominal concentration of GW6471 in the formulation was 2 mg/mL. […] The dose administered to each mouse was calculated on the basis of the mouse body weight (determined prior to dosing).

[2] = biological target: T1, PPARγ (Homo sapiens, UniProt P37231); assay: HG5LN reporter cell assay, PPARγ-mediated transcription; type: cell-based; parameters: expressed in transfected cells; host or cells: HG5LN (HeLa-derived, GAL4RE-luciferase)
T1 sequence (P37231 238-503 limits assumed): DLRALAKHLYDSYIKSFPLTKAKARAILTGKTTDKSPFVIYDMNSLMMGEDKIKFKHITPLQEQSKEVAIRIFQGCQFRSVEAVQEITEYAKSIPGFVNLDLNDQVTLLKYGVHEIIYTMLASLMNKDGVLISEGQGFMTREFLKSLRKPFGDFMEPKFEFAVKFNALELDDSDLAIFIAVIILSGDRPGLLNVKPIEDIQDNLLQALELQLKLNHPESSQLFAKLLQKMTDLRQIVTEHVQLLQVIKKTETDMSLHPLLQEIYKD
Description: Nuclear receptors, including PPARα and γ, are ligand-inducible transcription factors that form heterodimers with retinoid X receptors and bind to specific DNA sites located in the enhancer/promoter region of target genes, releasing co-repressors and/or recruiting co-activators ([Wang, 2010]). We therefore assessed the functional consequences of the ligands on PPARα and γ-mediated transcriptional activation in reporter cell lines. These cell lines were generated as previously reported by a two-step transfection procedure ([Seimandi et al., 2005]). First, a stable cell line, HG5LN, expressing the reporter gene (GAL4RE-luciferase) was developed from the HeLa cell line. These cells were then transfected with a plasmid expressing the C-terminal ligand-binding domain of PPARα or γ fused to GAL4 DNA-binding domain. The parental HG5LN cells were used as a control to test non-specific modulation of luciferase expression by the small molecules investigated (Figure S4A). The HG5LN PPAR reporter cells therefore allow comparison of the functional activity at, and selectivity of different ligands for, PPARα and γ. […] As expected ([Abu Aboud et al., 2015]), GW6471 potently antagonized PPARα (Figure 4E and Table 1).
A transfected […] cell line HG5LN was used ([Balaguer et al., 2001]). These cells were cultured in Dubecco's modified Eagle's medium (DMEM-F12 Thermo Fisher Scientific) with phenol red and supplemented with 5% foetal calf serum, incubated at 37°C in a 5% CO2/95% air-humidified atmosphere. Luciferase assays were performed in DMEM-F12 (Thermo Fisher Scientific) without phenol red and supplemented with 5% dextran-coated charcoal-stripped FCS (test culture medium), puromycin (Thermo Fisher Scientific) 0.5 μg/mL and geneticin (Thermo Fisher Scientific) 1 mg/mL. Cells were seeded at a density of 5 x 10^4 cells/well and incubated for 8 h at 37°C in a 96-well plate white opaque tissue culture plates (Becton-Dickinson). Tested compounds were added in serial dilutions and incubated for 16 h at 37°C. After incubation, the medium containing the effectors was carefully removed and replaced by culture medium containing 3 x 10^−4 mol/L luciferin (Sigma Chemicals). After 5 min incubation at room temperature, the 96-well plate was then read with a Microbeta Wallac luminometer and the luminescence was measured in the living cells for 2 s. All experiments were performed in quadruplicate.

[3] = ABT 50 mg/kg IP 2 h before (ABT + GW6471)

CCC(=O)NC[C@H](Cc1ccc(OCCc2nc(-c3ccccc3)oc2C)cc1)N/C(C)=C\C(=O)c1ccc(C(F)(F)F)cc1 [GW6471]
Increase of plasma concentration with ABT pre-treatment (based on AUC and Cmax) ([1]; ABT pre-treatment versus none): approximately 3 fold | Cmax [1, 3]: 3600 nM | Plasma AUC0–24 h [1, 3]: 31.4 h∗μM | Cmax ([1]; without ABT): 1180 nM | Plasma AUC0–24 h ([1]; without ABT): 9.81 h∗μM | Functionality, Type [2]: antagonist | IC50 ([2]; inhibition of agonism by 30 nM rosiglitazone, 16 h incubation, mean of 3 experiments ± SEM): 0.21 ± 0.064 µM
